In brackets after ≈: the same amount, converted by molar mass.
Details: buffer; pH 7.4; 200.0 µM

Compound | solubility kinetic
COc1ccc(/C=N/Nc2nc(C)cc(=O)[nH]2)cc1OC | > 43.2 µg/mL
Cc1ccc(SC(C)C(=O)NC(N)=O)c(C)c1 (stereo not given) | 7.7 µg/mL (≈ 30.5 µM)
O=[N+]([O-])c1ccccc1S(=O)(=O)Nc1cccc(S(=O)(=O)N2CCCC2)c1 | > 61.7 µg/mL
COc1cc(F)ccc1S(=O)(=O)n1c(C)nc2ccccc21 | > 48.1 µg/mL
COc1ccc(C2(C)CC(C)(C)Nc3ccccc32)cc1 (stereo not given) | 5.7 µg/mL (≈ 20.3 µM)
CC(=O)N1N=C2C3CCN(CC3)C2C1c1ccc(F)cc1 (stereo not given) | > 43.1 µg/mL
N#Cc1nc(-c2ccc(F)cc2)oc1NCc1ccco1 | 1.1 µg/mL (≈ 3.88 µM)
COc1ccc(-n2c(C)cc(C(=O)CN3CCC(C)CC3)c2C)cc1 | 46.3 µg/mL (≈ 136 µM)
COc1cccc(N2CCN(C(=S)Nc3ccc(F)cc3)CC2)c1 | 0.6 µg/mL (≈ 1.74 µM)
CC(C)CC(=O)Nc1ccc([N+](=O)[O-])cc1Cl | 9.8 µg/mL (≈ 38.2 µM)
CCc1ccc(/C=C/c2c([N+](=O)[O-])c(=O)n(C)c(=O)n2C)cc1 | 7.6 µg/mL (≈ 24.1 µM)
CC(C)Cc1nc2oc3c(Cl)ncnc3c2c2c1CCCC2 | < 0.2 µg/mL
CC(C)CCC(C)NC(=O)c1ccc2nccnc2c1 (stereo not given) | 34.6 µg/mL (≈ 128 µM)
CC(C)N1CCN(Cc2ccc3nsnc3c2)CC1CCO (stereo not given) | > 48.1 µg/mL
CCOc1ccc(C2=CSC3=NCCN23)cc1 | 22.9 µg/mL (≈ 93 µM)
Cn1c(N)c(C(=O)COC(=O)c2cccc(S(=O)(=O)N3CCOCC3)c2)c(=O)n(C)c1=O | 20 µg/mL (≈ 42.9 µM)
c1cc(OCCCN2CCCCC2)ccc1CN1CCCCC1 | 44.7 µg/mL (≈ 141 µM)
CC(C)Cn1c(SCC(=O)O)nnc1-c1cccc(S(=O)(=O)N2CCOCC2)c1 | > 66.1 µg/mL
COc1ccc(-n2c(SCC(N)=O)nnc2-c2ccco2)cc1 | > 49.6 µg/mL
COc1cccc(NC(=O)N2C3CCCC2CC(NC(C)=O)C3)c1 (stereo not given) | > 49.7 µg/mL
CCCNC(=O)CSc1nc2ccc(OCC)cc2s1 | 7.2 µg/mL (≈ 23.2 µM)
CC(c1nccs1)N(C)c1nc2nonc2nc1NC1CC1 (stereo not given) | 9.6 µg/mL (≈ 30.2 µM)
O=C(COC(=O)c1ccco1)Nc1cc(S(=O)(=O)N2CCOCC2)ccc1Cl | 16.4 µg/mL (≈ 38.2 µM)
O=[N+]([O-])/C=C1\NCCN1Cc1ccc(Cl)nc1 | 35.8 µg/mL (≈ 141 µM)
COc1cc(C(=S)N2CCCC2)ccc1OCc1ccc(C)cc1 | < 0.7 µg/mL
CCc1ccnc(NS(=O)(=O)c2ccc3c(c2)CCO3)c1 | 17.6 µg/mL (≈ 57.8 µM)

Second part, the compound after the results:

solubility kinetic | Compound
> 40.4 µg/mL | O=C(NCCOC(=O)c1ccccc1)c1ccccc1
49.9 µg/mL (≈ 147 µM) | COc1ccccc1OCCCCn1c(C(C)O)nc2ccccc21 (stereo not given)
> 36.6 µg/mL | O=C(NC1CC1)C1CC(=O)N(c2ccccc2)C1 (stereo not given)
> 44.6 µg/mL | CC(=O)NC(CC(=O)NCc1ccncc1)c1ccccc1 (stereo not given)
0.5 µg/mL (≈ 1.76 µM) | Oc1ccc(Cl)cc1CNc1cccc2cccnc12
1 µg/mL (≈ 2.34 µM) | C=CCN(c1ccccc1OC)S(=O)(=O)c1cccc(C(=O)NCc2ccco2)c1
5 µg/mL (≈ 16.5 µM) | Cc1ccc(S(=O)(=O)N(Cc2ccccc2)C(C)C)cc1
> 49.8 µg/mL | Cc1nc2ccccc2c2c1C(=O)N(c1cccc(C(=O)O)c1)C2=O
25.9 µg/mL (≈ 57.7 µM) | CCOc1ccc(NC(=O)COC(=O)c2ccc(S(=O)(=O)N3CCOCC3)cc2)cc1
> 52.8 µg/mL | O=C(COC(=O)c1ccc[n+]([O-])c1)Nc1cc([N+](=O)[O-])ccc1Cl
9.8 µg/mL (≈ 31.3 µM) | Cc1ccccc1CSCCC(=O)NCCc1ccccc1
43.1 µg/mL (≈ 143 µM) | COc1ccc(NC(=O)C(=O)NCCCn2ccnc2)cc1
1.1 µg/mL (≈ 3.6 µM) | CC(C)(C)c1ccc(NC(=O)c2c(F)cccc2Cl)cc1
> 52.1 µg/mL | O=C(O)CCN1C(=O)C2C3c4ccccc4C(c4ccccc43)C2C1=O (stereo not given)
7.2 µg/mL (≈ 28.3 µM) | N=c1oc2ccc3ccccc3c2cc1C(N)=S
1.4 µg/mL (≈ 4.6 µM) | O=c1nc(-c2ccccc2)c2cc(SC(F)F)ccc2[nH]1
46 µg/mL | CC(C)(C)c1ccc(C(=O)OCCN2CCCCC2)cc1.Cl

solubility kinetic | Compound
> 43.6 µg/mL | Cc1cnc(C(=O)OCC(=O)c2ccc(Cl)cc2)cn1
> 50.5 µg/mL | CC(=O)C(Cc1ccccc1)NC(=O)CN1CCc2ccccc2C1 (stereo not given)
4.3 µg/mL (≈ 10.5 µM) | CC(=O)Oc1ccc(N(C(C)=O)S(=O)(=O)c2ccc(C)cc2C)c2ccccc12
> 48.6 µg/mL | O=C(CCNC(=O)c1ccco1)Nc1ccccc1OC(F)F
1.2 µg/mL (≈ 3.78 µM) | CN(C)Cc1ccccc1C(O)(c1ccccc1)c1ccccc1
30 µg/mL (≈ 89.7 µM) | CC1CC(=O)Nc2ccccc2N1S(=O)(=O)c1cccc(F)c1 (stereo not given)
34.3 µg/mL (≈ 116 µM) | CN(C)c1ccc(C(=O)NCc2ccc3c(c2)CCO3)cc1
4.7 µg/mL (≈ 13 µM) | N#CCC(=O)Nc1ccc(C(=O)OCC(=O)c2c[nH]c3ccccc23)cc1
> 41.6 µg/mL | COc1ccccc1CC(=O)Nc1ccc(F)cc1F
> 37.5 µg/mL | O=c1oc2ccccc2c(NCCO)c1[N+](=O)[O-]
> 47.8 µg/mL | COC(=O)c1c(N)sc(C(=O)NCCc2ccccc2)c1C
> 44.5 µg/mL | Cc1csc(NC(=O)c2ccc(S(C)(=O)=O)cc2)n1
0.6 µg/mL (≈ 1.84 µM) | COc1ccc(OCCSc2nc(C)nc3ccccc23)cc1
> 41.5 µg/mL | N#CC1(c2ccccc2)CCC(=O)N1Cc1ccccc1 (stereo not given)
35.4 µg/mL (≈ 137 µM) | O=C(OCc1nc2ccccc2s1)c1ccco1
> 46.9 µg/mL | CCc1ccccc1N1CN(Cc2cccnc2)CNC1=S
0.2 µg/mL (≈ 0.675 µM) | CNc1ccc([N+](=O)[O-])cc1-c1nc2ccccc2[nH]c1=O

Reference: PubChem BioAssay AID1996
